According to PubChem BioAssay (NCI):
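Protocol summary: plate cells (96-well), add compound at 5 concentrations, incubate 48 h, interpolate endpoints linearly. GI50 is the concentration that inhibits growth by half. At the TGI there is no net growth.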

Columns and labels:
Experiment in all cases: growth of human tumour cells (NCI), 48 h
HOP-92 NSCLC = test system: HOP-92 NSCLC
M14 melanoma = test system: M14 melanoma
NCI/ADR-RES ovarian = test system: NCI/ADR-RES ovarian
SF-539 CNS = test system: SF-539 CNS
T-47D breast = test system: T-47D breast
OVCAR-3 ovarian = test system: OVCAR-3 ovarian
HT29 colon = test system: HT29 colon
SK-MEL-28 melanoma = test system: SK-MEL-28 melanoma
SF-295 CNS = test system: SF-295 CNS
NCI-H23 lung = test system: NCI-H23 lung

| SMILES | GI50 (HOP-92 NSCLC) [nM] | TGI (HOP-92 NSCLC) [µM] | GI50 (M14 melanoma) [µM] | TGI (M14 melanoma) [µM] | GI50 (NCI/ADR-RES ovarian) [µM] | TGI (NCI/ADR-RES ovarian) [µM] | GI50 (SF-539 CNS) [µM] | TGI (SF-539 CNS) [µM] | GI50 (T-47D breast) [µM] | TGI (T-47D breast) [µM] | GI50 (OVCAR-3 ovarian) [µM] | TGI (OVCAR-3 ovarian) [µM] | GI50 (HT29 colon) [µM] | TGI (HT29 colon) [µM] | GI50 (SK-MEL-28 melanoma) [µM] | TGI (SK-MEL-28 melanoma) [µM] | GI50 (SF-295 CNS) [µM] | TGI (SF-295 CNS) [µM] | GI50 (NCI-H23 lung) [µM] | TGI (NCI-H23 lung) [µM] |
| --- | --- | --- | --- | --- | --- | --- | --- | --- | --- | --- | --- | --- | --- | --- | --- | --- | --- | --- | --- | --- |
| Cc1oncc1C(=O)Nc1ccc(C(F)(F)F)cc1 | 6170 | 46 | 68.2 | > 100 | 45.1 | > 100 | 60.3 | > 100 | 94 | > 100 | 20.8 | 78.7 | 66.3 | > 100 | 56.7 | > 100 | 19.5 | > 100 | 42.4 | > 100 |
| O=C(O[C@H]1CN[C@H](C#Cc2cc3ncnc(Nc4ccc(Cc5ccccc5)cc4)c3s2)C1)N1CCOCC1 | 1700 | 11.5 | 6.08 | 18.9 | 5.72 | > 23.8 | 4.42 | 11.7 | 1.86 | > 25 | 3.85 | 11 | 4.71 | 10.7 | 4.78 | 10.9 | > 13.6 | > 25 | 6.35 | 24.9 |
| NC(=O)c1cccc(N)c1 | > 100000 | > 100 | > 100 | > 100 | > 100 | > 100 | > 100 | > 100 | > 100 | > 100 | > 100 | > 100 | > 100 | > 100 | > 100 | > 100 | > 100 | > 100 | > 100 | > 100 |
| COC(=O)c1c2c(c[n+]([O-])c1C)C(=O)C(NCc1ccccc1)=CC2=O | 1040 | 2.72 | 0.297 | 1.12 | 0.302 | 1.37 | 0.457 | 1.67 | 0.327 | 1.53 | 0.256 | 0.796 | 0.43 | > 20.3 | 1.6 | 3.29 | 0.885 | 2.15 | 0.485 | 2.6 |
| Nc1ccccc1C#Cc1ccccc1C#Cc1ccccc1N | 3620 | 15.6 | 6.62 | 24.5 | 13 | 73.3 | 5.4 | 21.1 | 17.1 | 38.4 | 2.22 | 8.24 | 5.98 | > 100 | 15.1 | 87.8 | 3.13 | 10.5 | 19.3 | 70.8 |
| COc1cccc(C2=NN(C(C)=O)C(c3cc(OC)c(OC)c(OC)c3)C2)c1 (stereo unspecified) | 14900 | > 100 | 1.47 | > 100 | 1.9 | > 20.1 | 2.81 | > 25.7 | 4.49 | > 100 | 1.09 | 3.8 | 3.1 | > 100 | > 22.8 | > 100 | 0.576 | 3.98 | 3.48 | > 100 |
| O=C(/C=C/c1ccccc1O)c1ccccc1 | 8770 | 23 | 8.23 | 21.4 | 21.7 | > 100 | 15.4 | 34.1 | 14.7 | 64.5 | 3.14 | 12.3 | 3.55 | 15.4 | 9.5 | 22 | 10.9 | 26.4 | 9.63 | 23.2 |
| O=[N+]([O-])c1ccccc1S(=O)(=O)c1ccccc1[N+](=O)[O-] | – | 91.4 | – | > 100 | – | > 100 | – | > 96.8 | – | > 100 | – | > 100 | – | > 100 | – | > 100 | – | > 100 | – | > 100 |
| O=C(/C=C/c1ccccc1Cl)c1ccc(O)cc1 | 6750 | 23.7 | 10.6 | 24.6 | 16.4 | > 70.6 | 5.22 | 12.2 | 6.38 | 25.9 | 3.46 | 9.22 | 4.72 | 17.4 | 11 | 23 | 8.97 | 23.7 | 10.6 | 31.5 |
| Clc1ccc(-c2nc(-c3c[nH]c4ncccc34)cs2)cc1 | 27.7 | > 100 | > 100 | > 100 | > 100 | > 100 | 35.7 | > 100 | 9.41 | > 100 | > 100 | > 100 | > 100 | > 100 | > 100 | > 100 | > 100 | > 100 | 97.7 | > 100 |
| NC(Cc1cc(Br)c(O)c(Br)c1)C(=O)O (stereo unspecified) | – | > 100 | – | > 100 | – | > 100 | – | > 100 | – | > 100 | – | > 100 | – | > 100 | – | > 100 | – | > 100 | – | > 100 |
| COc1cc(C2=Nc3c/c(=C\c4c(O)[nH]c5ccc(Cl)cc45)ccc3=N2)cc(OC)c1OC | 444 | 6.35 | 1.71 | 3.83 | 5.96 | 54.7 | 4 | 15.9 | 9.13 | 37.3 | 3.07 | 11.1 | 2.11 | 4.5 | 3.2 | 12.7 | 11.7 | 29.7 | 1.96 | 7.61 |
| S=C(Nc1ccc(-c2nc3ccccc3s2)cc1)Nc1ccccn1 | 16700 | 64.1 | 25.2 | 60.9 | 24.6 | 66.6 | 37.8 | > 100 | 23.6 | > 95.5 | 18.7 | > 53.9 | 28.3 | > 80.4 | 35.3 | > 95.4 | 24.5 | 66.3 | 25.7 | 70.6 |
| N#CC(NC12CC3CC(CC(C3)C1)C2)c1ccccc1 (stereo unspecified) | – | > 100 | – | > 100 | – | > 100 | – | > 100 | – | > 100 | – | > 100 | – | > 100 | – | > 100 | – | > 100 | – | > 100 |
| Cc1nc(NC(=O)COc2cccc(/C=C3\COc4ccccc4C3=O)c2)sc1C | 1690 | 3.83 | 1.83 | 3.75 | 3.12 | 9.79 | 1.73 | 3.46 | 2.9 | 10.4 | 1.83 | 3.27 | 1.89 | 4.14 | 1.79 | 3.32 | 1.64 | 3.33 | 1.92 | 4.12 |
| C[C@@]12CCC[C@@](C)(C(=O)O)C1CC[C@]13C=C(CO)[C@](O)(CCC12)C3 (stereo partly specified) | > 100000 | > 100 | > 100 | > 100 | > 100 | > 100 | > 100 | > 100 | > 100 | > 100 | > 100 | > 100 | > 100 | > 100 | > 100 | > 100 | > 100 | > 100 | > 100 | > 100 |
| C[CH2][Sn]1([CH2]C)[O]C2C(O)OC(CO)C(O)C2[O]1 (stereo unspecified) | 20000 | 47 | 37.3 | > 100 | > 100 | > 100 | 17.3 | 32.5 | 14.6 | 32.3 | > 100 | > 100 | 65 | > 100 | 23.3 | 80.4 | > 100 | > 100 | 24.2 | 93 |
| COC(=O)C1=C2C3=C(C(=O)c4ccccc4C3=O)N(Cc3ccccc3)C2(OC(C)=O)C=CC1=O (stereo unspecified) | 850 | 19.7 | 15.2 | 34 | 8.56 | > 100 | 5.9 | 23.1 | 66.4 | > 100 | – | – | 37 | > 100 | 27.8 | 66.7 | 6.3 | 29.3 | 11.8 | 76.6 |
| Nc1nn(C(=O)Nc2ccc(Cc3ccccc3)cc2)c2ccc(Cl)cc12 | 13400 | 42 | 0.0666 | 11.7 | 7.89 | 51.6 | 1.29 | 7.66 | 0.0957 | 28.8 | 7.14 | 21.6 | 3.54 | 27.3 | 7.91 | > 100 | 0.122 | 19.9 | 5.72 | > 82.7 |
| Clc1ccc(N/N=C/c2ccccn2)nc1 | 608 | > 100 | 0.375 | – | 0.383 | > 100 | 0.329 | 2.46 | 0.349 | > 63.5 | 0.295 | > 100 | 0.574 | > 100 | 0.598 | > 100 | 0.452 | > 100 | 0.579 | > 100 |
| CCOc1ccc(/C=N/Nc2cc(C)nc3ccc(Cl)cc23)cc1 | 2100 | 7.08 | 1.53 | 2.91 | 1.9 | 3.86 | 1.97 | 3.4 | 1.94 | 3.8 | 1.93 | 3.5 | 1.9 | 3.47 | 1.78 | 3.19 | 1.76 | 3.24 | 1.76 | 3.32 |
| Oc1ccc(Cl)cc1Cc1cc(Cl)cc(Cc2cc(Cl)ccc2O)c1O | – | 5.94 | – | 6.71 | – | 6.82 | – | 4.37 | – | 7.56 | – | 11 | – | 10.4 | – | 14.6 | – | 7.36 | – | 6.62 |
| O=c1oc2c(Br)c(O)c(Br)cc2c2ccccc12 | – | 74.6 | – | > 100 | – | 78.1 | – | 63.3 | – | 96.5 | – | 40.7 | – | > 100 | – | > 100 | – | > 100 | – | 38.6 |
| COc1cc2c3c(n(CCCN=[N+]=[N-])c(=O)c2cc1OC)-c1ccc(N)cc1C3=O | 163 | 0.86 | 0.0591 | 0.237 | 0.316 | 1.41 | 0.0919 | 0.325 | 0.0988 | 0.76 | 0.249 | 0.923 | 0.133 | 0.929 | 0.613 | 2.78 | 0.0835 | 1.51 | 0.17 | 0.73 |
| CCc1ccc(/C(C#N)=C/C=C/c2ccccc2)cc1 | 2280 | 78.8 | 2.24 | > 100 | 2.21 | > 100 | 1.52 | 4.69 | 2.4 | > 100 | 2.46 | 13.6 | 1.38 | 9.41 | 7.12 | > 100 | 2.51 | 10.5 | 6.24 | > 100 |
| O=C(Nc1cccc(-n2cc(-c3ccncc3)c(-c3cc(O)cc(Cl)c3)n2)c1)Nc1ccc(Cl)c(Cl)c1 | – | – | 1.44 | 3.28 | 3.21 | > 100 | 1.44 | 3.27 | 2.39 | 6.17 | 1.96 | 5.05 | 1.92 | 3.9 | 2.14 | 5.55 | 1.7 | 4.6 | 2.41 | 6.29 |
| Cc1c(NC(=O)CCCl)c(=O)oc2c(C)c3occc(=O)c3cc12 | – | > 100 | – | > 100 | – | > 100 | – | – | – | > 100 | – | – | – | > 100 | – | > 100 | – | > 100 | – | > 100 |
| CCCCC(SC(=S)N(CC)CC)C(=O)Nc1nc(CC(=O)OCC)cs1 (stereo unspecified) | 53100 | > 100 | 33.7 | > 100 | 42.9 | > 100 | 34.6 | > 100 | 24.7 | > 100 | 13.7 | > 100 | 32.7 | > 100 | 47.3 | > 100 | 38.6 | > 100 | – | – |
